Data published in patent publication US20170216295A1, “CCR9 ANTAGONIST COMPOUNDS” (Merck Sharp & Dohme Corp., priority 2014, published 2017).
Several values for one entry are separate records, joined by “and”; a condition that tells them apart may be missing. Equal values may be shown once.

How the values were obtained:
[1] = molecular target: T1, CCR9 receptor (Homo sapiens, UniProt P51686); test: Calcium mobilization (Ca FLIPR) assay, antagonist mode vs TECK; type: cell-based; settings: for LipE: LipE = pIC50-clogD; for IC50: cells expressing CCR9, TECK at EC80 0.01 uM, read-out: CCR9 Ca2+ IC50
T1 sequence (P51686 1-369): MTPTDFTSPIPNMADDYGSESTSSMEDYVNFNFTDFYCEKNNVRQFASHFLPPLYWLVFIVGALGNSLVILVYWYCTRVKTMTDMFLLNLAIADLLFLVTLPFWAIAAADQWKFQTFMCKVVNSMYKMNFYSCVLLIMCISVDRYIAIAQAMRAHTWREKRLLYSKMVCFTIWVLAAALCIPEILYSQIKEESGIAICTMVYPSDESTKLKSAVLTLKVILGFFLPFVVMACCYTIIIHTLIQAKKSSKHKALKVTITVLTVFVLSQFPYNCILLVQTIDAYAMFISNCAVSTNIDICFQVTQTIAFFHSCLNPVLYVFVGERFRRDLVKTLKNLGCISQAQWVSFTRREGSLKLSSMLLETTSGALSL
Protocol: Calcium Mobilization Assay:
Cells expressing CCR9 receptor (MultiSpan, Hayward, Calif.) were seeded in 384-well plates. Ca^2+ assays were conducted after overnight culture in the plates according to the manufacturer's protocol using Screen Quest™ Fluo-8 no wash kit (AAT Bioquest, Sunnyvale, Calif.). Dye loading buffer was added to the cells and incubated for 45 minutes at 37° C. followed by 15 minutes incubation at room temperature. Compounds in the presence of 0.1% DMSO were applied to the cells during calcium flux measurement. Calcium flux was monitored for 90 seconds with compound application after 10 seconds. For antagonist mode, cells were preincubated with the compound at room temperature for 10 minutes before the application of the control agonist TECK (Preprotech, Rocky Hill, N.J.) at EC80 concentration of 0.01 uM obtained from dose-response curves of control agonist.

[2] = Rat liver microsome clearance; type: in vitro ADME; settings: first value of RLM/HLM cell
Protocol: Microsomal In-Vitro Clearance:
The test articles (2 μM) were incubated for one hour in 1 mg/mL rat hepatic microsomes with 2 mM NADPH at 37° C. with aliquots removed at t=0, 15, 30 and 60 minutes. Incubations were terminated at the specified times by protein precipitation, and samples were centrifuged. Resultant supernants were analyzed by LC-MS/MS for the amount of incubated compound remaining, and the half life (t1/2) and intrinsic microsomal clearance rate (CLint) of each compound was calculated.

[3] = Human liver microsome clearance; type: in vitro ADME; settings: second value of RLM/HLM cell
[4] = pH-solubility (high-throughput, buffers); type: physicochemical; settings: for Sol. pH 4: 1000 ug compound in 1 mL pH 4 buffer; for Sol. pH 7: 1000 ug compound in 1 mL pH 7 buffer; for Sol. pH 9: 1000 ug compound in 1 mL pH 9 buffer
Protocol: Solubility of representative acidic triazoles was measured in 3 buffer systems (pH 4, 7.4 and 9) using an in-house high-throughput solubility method. A stock solution of test article was prepared in DMA (20 mg/ml) and spiked into each buffer system (20× dilution) to target 1 mg/ml concentration. The samples were vortexed briefly and equilibrated for 24 hr at RT. Samples were then filtered using 0.22u PVDF membrane filters and analyzed for drug concentration using HPLC.

[5] = system: Molt-4 cells; test: Chemotaxis assay of Molt-4 cells towards TECK; type: cell-based; settings: Homo sapiens; Molt-4 cells in HBSS buffer with 0.1% BSA; TECK at EC80
Protocol: Molt-4 cells were harvested and re-suspended in HBSS buffer with 0.1% BSA or in 100% human serum. Cell suspensions were mixed with compound solutions for 10 min and then seeded onto the upper chamber of the ChemoTX chemotaxis plates with 5 μm pore size polycarbonate membrane from NeuroProbe (Gaithersburg, Md.). EC80 concentration of TECK was applied in the bottom chamber. After 2 hours of incubation at 37° C., the assay was terminated by removing the upper chamber. The cells migrated into the bottom chamber were quantified with CyQUANT solution from Invitrogen (Grand Island, N.Y.).

Row | Structure (SMILES) | LipE [1] | IC50 [1] | RLM CL (rat liver microsome hepatic clearance) [2] | HLM CL (human liver microsome hepatic clearance) [3] | Sol. pH 4 [4] | Sol. pH 7 [4] | Sol. pH 9 [4] | IC50 [5]
1 | Cc1nc2nc(C(F)(F)F)nn2c(O)c1Cc1ccc(C(C)(C)C)cc1 [Compound 2] | 2.6 | 410 nM | 54 mL/min/kg | 19 mL/min/kg | 4 ug/mL | 565 ug/mL | 1035 ug/mL and > 1000 ug/mL | –
2 | Cc1c(Cc2ccc(C(C)(C)C)cc2)c(=O)n2nc(C(F)(F)F)nc2n1C [Compound 4] | – | > 20000 nM | – | – | – | – | – | –
3 | COc1c(Cc2ccc(C(C)(C)C)cc2)c(C)nc2nc(C(F)(F)F)nn12 [Compound 5] | – | 3700 nM | – | – | – | – | – | –
4 | Cc1nc2cc(C(F)(F)F)nn2c(O)c1Cc1ccc(C(C)(C)C)cc1 [Compound 7] | – | 110 nM | 42 mL/min/kg | 18 mL/min/kg | 0 ug/mL | 0 ug/mL | 5 ug/mL | 980 nM
5 | CCc1nc2n[nH]c(=O)n2c(O)c1Cc1ccc(C(C)(C)C)cc1 [Compound 8] | 5.5 | 28 nM | 39 mL/min/kg | 4 mL/min/kg | 79 ug/mL | 117 ug/mL | 914 ug/mL | 230 nM
6 | Cc1cn2c(O)c(Cc3ccc(C(C)(C)C)cc3)c(C)nc2n1 [Compound 9] | – | > 10000 nM | – | – | – | – | – | –
7 | CCc1nc2c[nH]nc2c(O)c1Cc1ccc(C(C)(C)C)cc1 [Compound 10] | – | > 10000 nM | – | – | – | – | – | –
8 | CCc1nc2nc(CN(C)C)nn2c(O)c1Cc1ccc(C(C)(C)C)cc1 [Compound 16] | – | 290 nM | – | – | – | – | – | –
9 | CCc1nc2nc(COC)nn2c(O)c1Cc1ccc(C(C)(C)C)cc1 [Compound 17] | – | 7 nM | 36 mL/min/kg | 13 mL/min/kg | – | – | – | 190 nM
10 | CCc1nc2nc(C(=O)N(C)C)nn2c(O)c1Cc1ccc(C(C)(C)C)cc1 [Compound 18] | – | 12 nM | 42 mL/min/kg | 18 mL/min/kg | 0 ug/mL | 0 ug/mL | 5 ug/mL | 520 nM
11 | CCOc1nc2nc(CC)c(Cc3ccc(C(C)(C)C)cc3)c(O)n2n1 [Compound 19] | 4.2 | 8 nM | 16 mL/min/kg | 11 mL/min/kg | 79 ug/mL | 117 ug/mL | 914 ug/mL | 150 nM
12 | CCc1nc2nc(CO)nn2c(O)c1Cc1ccc(C(C)(C)C)cc1 [Compound 20] | 5.5 | 10 nM | 43 mL/min/kg | 8 mL/min/kg | – | – | – | 200 nM
13 | Cc1nc2nc(C(F)(F)F)nn2c(O)c1Cc1ccc(N2CC(C)OC(C)C2)c(F)c1 (centres unmarked) [Compound 33] | 3 | 1900 nM | – | —/17 mL/min/kg | 79 ug/mL | > 1000 ug/mL | > 1000 ug/mL | –
14 | Cc1nc2nc(C(F)(F)F)nn2c(O)c1Cc1ccc(C2(F)CCOCC2)cc1 [Compound 34] | 3.7 | 340 nM | 43 mL/min/kg | 17 mL/min/kg | – | – | – | –
15 | CCc1nc2ncnn2c(O)c1Cc1ccc(C2(C)CCOCC2)cc1 [Compound 35] | 5.7 | 22 nM | 37 mL/min/kg | 17 mL/min/kg | >1000/>1000/>1000 ug/mL | >1000/>1000/>1000 ug/mL | >1000/>1000/>1000 ug/mL | 380 nM

Other lines, results leading:

Row | LipE [1] | IC50 [1] | RLM CL (rat liver microsome hepatic clearance) [2] | HLM CL (human liver microsome hepatic clearance) [3] | Sol. pH 4 [4] | Sol. pH 7 [4] | Sol. pH 9 [4] | IC50 [5] | Structure (SMILES)
16 | – | 820 nM | – | – | – | – | – | – | Cc1c(Cc2ccc(C(C)(C)C)cc2)c(O)nc2ncnn12 [Compound 3]
17 | 3.9 | 220 nM | 50 mL/min/kg | 11 mL/min/kg | – | – | – | – | Cc1nc2nc(C)c(Cc3ccc(C(C)(C)C)cc3)c(O)n2n1 [Compound 12]
18 | 4.4 | 19 nM | – | – | – | – | – | 130 nM | CCc1nc2nc(C)nn2c(O)c1Cc1ccc(C(C)(C)C)cc1 [Compound 13]
19 | 5.9 | 2 nM | 39 mL/min/kg | 6 mL/min/kg | 2 ug/mL | 7 ug/mL | 358 ug/mL | 50 nM | CCc1nc2nc(N)nn2c(O)c1Cc1ccc(C(C)(C)C)cc1 [Compound 14]
20 | 4.1 | 33 nM | 43 mL/min/kg | 12 mL/min/kg | – | – | – | 380 nM | CCc1nc2nc(N(C)C)nn2c(O)c1Cc1ccc(C(C)(C)C)cc1 [Compound 15]
21 | 4.8 | 21 nM | 51 mL/min/kg | 12 mL/min/kg | – | – | – | 88 nM | CCc1nc2ncnn2c(O)c1Cc1ccc(C(C)(C)C)cc1 [Compound 21]
22 | 5.0 | 4 nM | – | – | – | – | – | 55 nM | CCCc1nc2ncnn2c(O)c1Cc1ccc(C(C)(C)C)cc1 [Compound 22]
23 | 4.0 | 52 nM | 44 mL/min/kg | 13 mL/min/kg | 2 ug/mL | 7 ug/mL | 358 ug/mL | 340 nM | CC(C)c1nc2ncnn2c(O)c1Cc1ccc(C(C)(C)C)cc1 [Compound 23]
24 | 3.9 | 27 nM | 43 mL/min/kg | 12 mL/min/kg | – | – | – | 270 nM | CC(C)Cc1nc2ncnn2c(O)c1Cc1ccc(C(C)(C)C)cc1 [Compound 24]
25 | 4.8 | 23 nM | 52 mL/min/kg | 11 mL/min/kg | – | – | – | 92 nM | CCOc1nc2ncnn2c(O)c1Cc1ccc(C(C)(C)C)cc1 [Compound 25]
26 | – | 15 nM | 47 mL/min/kg | 11 mL/min/kg | – | – | – | 145 nM | CC(C)(C)c1ccc(Cc2c(C3CCCC3)nc3ncnn3c2O)cc1 [Compound 28]
27 | – | 17 nM | 45 mL/min/kg | 8 mL/min/kg | – | – | – | 205 nM | CC(C)(C)c1ccc(Cc2c(C3CCOC3)nc3ncnn3c2O)cc1 (centres unmarked) [Compound 29]
28 | 5.3 | 5 nM | – | – | – | – | – | 104 nM | CC(C)(C)c1ccc(Cc2c(-c3ccoc3)nc3ncnn3c2O)cc1 [Compound 30]
29 | – | > 10000 nM | – | – | – | – | – | – | CC(C)(C)c1ccc(Cc2c(O)nc3ncnn3c2O)cc1 [Compound 31]
30 | – | > 1000 nM | – | – | – | – | – | – | CN(C)c1nc2ncnn2c(O)c1Cc1ccc(C(C)(C)C)cc1 [Compound 32]
31 | 5.9 | 13 nM | 49 mL/min/kg | 20 mL/min/kg | 62 ug/mL | > 1000 ug/mL | > 1000 ug/mL | 60 nM | CCc1nc2ncnn2c(O)c1Cc1ccc(C(C)(C)COC)cc1 [Compound 36]
